From patent US4540513A, “Decapeptide having gonadotropin releasing activity” (Kanegafuchi Kagaku Kogyo Kabushiki Kaisha, priority 1984, dated 1985)
Where a SMILES comes first, the peptide text is derived from it. [ ]: non-standard residue; d: D form. pGlu = O=C1CC[C@@H](C(=O)O)N1

Test system: rat prehypophysis (anterior pituitary) cells
Test: Gonadotropin (LH and FSH) releasing activity, monolayer culture of rat prehypophysis cells, radioimmunoassay of the supernatant
Format: cell-based
Experimental: The synthetic or natural decapeptides prepared in Example 1 was dissolved in 1N acetic acid so that the concentration was 1 μg/ml.
A series of half dilutions from 10.24 ng/ml to 10 pg/ml was prepared from the above solution.
Each sample solution in the series was dried in a rotary evaporator by evaporating 1N acetic acid.
The releasing activity was measured by monolayer culture method using rat prehypohysis cells. After rat prehypophysis cells were disperesed with tripsin and Viokase, the dispersed cells were washed well with a culture medium [Dulbecco's modified Eagle's medium (DMEM) containing 100 unit/ml gentamicin, 2.5 μ/ml fungizone, 5% horse serum, 5% human serum, and 2.5% fetal bovine serum]. The cells were inoculated at a density of 5×10^4 cells in each well of a plastic culture tray having 96 wells and precultured for 4 days.
Samples to be tested for gonadotropin releasing activity were added to the fifth-day culture and the culture was further incubated for 24 hours at 37° C. in the presence of 5% CO2.
On the fifth day of the culture the above dried peptide sampls were dissolved in 0.5 ml of the Dulbecco's modified Eagle's medium (DMEM), 0.2 ml of aligot was aded to each well, and the cells were cultured in the well for additional 24 hours.
After the culture, the supernatent of the culture was withdrawn and assayed for LH and FSH with the radio imunoassay kit provided by NIH.

[1] = 24 hours incubation, LH and FSH by radioimmunoassay

Structure (SMILES): NC(=O)CNC(=O)[C@@H]1CCCN1C(=O)[C@H](Cc1ccc(O)cc1)NC(=O)[C@H](Cc1c[nH]c2ccccc12)NC(=O)CNC(=O)[C@H](Cc1c[nH]cn1)NC(=O)[C@H](CO)NC(=O)[C@H](Cc1c[nH]c2ccccc12)NC(=O)[C@H](Cc1c[nH]cn1)NC(=O)[C@@H]1CCC(=O)N1 [decapeptide of the present invention, pGlu-His-Trp-Ser-His-Gly-Trp-Tyr-Pro-Gly-NH2] ([pGlu]HWSHGWYPG-NH2)
- lowest detectable amount [1]: 160 pg/mL
- specific activity at the half maximum dose [1]: 3.1 ng/mL
- LH and FSH releasing activity, specific activity relative to conventional LH-RH (% of the conventional LH-RH in specific activity): 30%
- gonadotropin-releasing potency relative to mammalian LHRH (bioassay with rat anterior pituitary cells, % of that of mammalian LHRH): about 32%
- gonadotropin-releasing potency relative to chicken LHRH (bioassay with rat anterior pituitary cells, times more potent than chicken LHRH): 8 times
- LH releasing activity at the maximum dose relative to control (maximum dose, bigger than that of the control): about 3.5 times
- LH releasing activity at the maximum dose (maximum dose, control 200 ng/ml LH): 3200 ng/ml LH
- activity of the purified relative to the starting material (purified from chicken hypothalamus extract, times more than the starting material): about 15×10^8 times
